# Structures can show the parent of a compound that is named as a salt. Where two headings read alike, the source gives them in different places.
# What was measured:
# Aurora A = target: T1, Aurora A (Homo sapiens, UniProt O14965); assay: Aurora A kinase inhibition (biochemical assay)
# T1 sequence (O14965 1-403): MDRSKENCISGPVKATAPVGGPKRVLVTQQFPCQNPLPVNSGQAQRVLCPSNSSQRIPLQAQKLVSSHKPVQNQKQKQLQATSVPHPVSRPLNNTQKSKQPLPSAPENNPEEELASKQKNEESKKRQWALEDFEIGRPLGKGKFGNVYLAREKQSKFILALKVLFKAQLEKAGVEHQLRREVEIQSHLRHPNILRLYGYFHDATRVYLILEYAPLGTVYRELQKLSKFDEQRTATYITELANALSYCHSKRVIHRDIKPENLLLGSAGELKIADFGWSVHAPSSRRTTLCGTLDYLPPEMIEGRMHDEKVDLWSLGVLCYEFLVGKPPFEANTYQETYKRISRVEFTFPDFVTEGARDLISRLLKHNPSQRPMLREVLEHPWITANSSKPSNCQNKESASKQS
# Aurora B = Aurora B (Homo sapiens, UniProt Q96GD4); assay: Aurora B kinase inhibition; type: biochemical; conditions: Table 1
# Haspin = target: T2, Haspin (Homo sapiens, UniProt Q8TF76); assay: Haspin kinase inhibition; type: biochemical; conditions: Table 1
# T2 sequence (Q8TF76 1-798): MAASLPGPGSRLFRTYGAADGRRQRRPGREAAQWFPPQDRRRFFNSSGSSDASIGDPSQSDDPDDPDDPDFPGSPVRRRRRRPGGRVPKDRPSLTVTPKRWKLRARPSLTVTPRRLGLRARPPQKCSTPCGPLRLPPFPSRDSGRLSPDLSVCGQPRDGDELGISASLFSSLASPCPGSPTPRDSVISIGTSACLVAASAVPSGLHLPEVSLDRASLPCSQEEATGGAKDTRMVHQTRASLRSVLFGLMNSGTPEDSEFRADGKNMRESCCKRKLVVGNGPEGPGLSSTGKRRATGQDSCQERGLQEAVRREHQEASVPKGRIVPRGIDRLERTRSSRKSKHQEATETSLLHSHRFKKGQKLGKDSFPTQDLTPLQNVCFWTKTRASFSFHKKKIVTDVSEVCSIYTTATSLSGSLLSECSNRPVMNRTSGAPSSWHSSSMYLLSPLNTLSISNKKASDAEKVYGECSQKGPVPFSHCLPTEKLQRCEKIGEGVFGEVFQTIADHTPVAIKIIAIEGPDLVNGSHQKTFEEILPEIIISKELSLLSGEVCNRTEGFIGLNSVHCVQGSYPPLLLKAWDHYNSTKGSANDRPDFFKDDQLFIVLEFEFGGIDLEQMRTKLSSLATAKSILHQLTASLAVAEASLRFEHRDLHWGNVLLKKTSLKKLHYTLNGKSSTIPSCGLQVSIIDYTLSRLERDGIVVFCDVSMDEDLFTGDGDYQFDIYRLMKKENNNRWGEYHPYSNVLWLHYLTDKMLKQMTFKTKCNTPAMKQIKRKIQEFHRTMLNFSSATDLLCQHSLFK
# Description: Table 1 Activity of compounds fitting to general pharmacophore model against selected Ser/Thr kinases. | column: Haspin, IC50, μM
# [1] = system: HL-60 (acute promyelocytic leukemia); assay: MTT cytotoxicity, HL-60; type: cell-based; conditions: Homo sapiens; HL-60, MTT, 72 h
# Description: (§1) All cells lines were purchased in ATCC (Manassas, VA, USA), except for human primary fibroblasts (HFB), which were a generous gift from Dashinimaev E.B. (Koltsov Institute of Developmental Biology). H1299 (lung adenocarcinoma), H23 (lung adenocarcinoma), Colo320 (colon carcinoma), RS4;11 (acute lymphoblastic leukemia), PC3 (prostate adenocarcinoma) and HL-60 (acute promyelocytic leukemia) were cultivated in RPMI-1640 medium, with addition of 10% fetal calf serum (HyClone, South Logan, Utah, USA) and 2 mM L-Glutamine at 37 °C, 5% CО2. MDA-MB-453 (mammary adenocarcinoma), A549 (lung adenocarcinoma), HCT-116 (colon carcinoma), A431 (epidermoid carcinoma), MDA-MB-231 (mammary adenocarcinoma), BxPC3 (pancreatic adenocarcinoma), MEF (mouse embryonic fibroblasts, SV-40 immortalized), MEF Bax^−/−/Bak^−/− knockout cells (mouse embryonic fibroblasts, SV-40 immortalized, resistant to apoptosis) were cultivated in DMEM medium, with addition of 10% fetal calf serum (HyClone) and 2 mM L-Glutamine at 37 °C, 5% CО2.
# (§2) Cells were seeded in 96-well plates (Corning, NY, USA): 5000 cells per well for adhesive cultures and cells, 25,000 cells per well for suspension cultures. Analyzed substances were added in 0.1–50 μM concentration range, with 2 × dilutions, and incubated for 72 h at 37 °C, 5% CО2. After incubation 20 uL of 5 mg/mL of water solution of 3-(4,5-dimethylthiazol-2-yl)-2,5-diphenyltetrazolium bromide (MTT, PANEKO, Moscow, Russia) was added to the cells and they were incubated for additional 4 h. After the incubation the medium was aspirated, cells were dissolved in 100 uL of DMSO and the optical density was measured at 570 nm with a МultiscanFC plate reader (ThermoScientific, Cambridge, MA, USA). The percentage of surviving cells at each dose was calculated by dividing the optical density of treated cells by the optical density of untreated control (which was taken as 100%). The IC50s were calculated in GraphPad Prism 5.0.
# [2] = system: H23 (lung adenocarcinoma); assay: MTT cytotoxicity, H23; type: cell-based; conditions: 72 h
# Description: as §1, §2
# [3] = system: H1299 (lung adenocarcinoma); assay: MTT cytotoxicity, H1299; type: cell-based; conditions: Homo sapiens, NCI-H1299, 72 h
# Description: as §1, §2
# [4] = system: PC3 (prostate adenocarcinoma); assay: MTT cytotoxicity, PC3; type: cell-based; conditions: 72 h
# Description: as §1, §2
# [5] = system: MDA-MB-453 (mammary adenocarcinoma); assay: MTT cytotoxicity, MDA-MB-453; type: cell-based; conditions: Homo sapiens; MDA-MB-453, MTT, 72 h
# Description: as §1, §2
# [6] = system: RS4;11 (acute lymphoblastic leukemia); assay: MTT cytotoxicity, RS4;11; type: cell-based; conditions: Homo sapiens; RS4;11, MTT, 72 h
# Description: as §1, §2
# [7] = system: A-549 (lung adenocarcinoma); assay: MTT cytotoxicity, A-549; type: cell-based; conditions: Homo sapiens, A549; A-549, MTT, 72 h
# Description: as §1, §2
# [8] = system: HCT-116 (colon carcinoma); assay: MTT cytotoxicity, HCT-116; type: cell-based; conditions: Homo sapiens; HCT-116, MTT, 72 h
# Description: as §1, §2
# MTT cytotoxicity, HFB = type: cell-based; conditions: human, human primary fibroblasts (HFB)
# Description: as §1, §2
# [9] = system: A431 (epidermoid carcinoma); assay: MTT cytotoxicity, A431; type: cell-based; conditions: Homo sapiens, A-431, 72 h
# Description: as §1, §2
# [10] = system: Colo-320 (colon carcinoma); assay: MTT cytotoxicity, Colo-320; type: cell-based; conditions: Homo sapiens; Colo-320, MTT, 72 h
# Description: as §1, §2
# [11] = system: MDA-MB231 (mammary adenocarcinoma); assay: MTT cytotoxicity, MDA-MB231; type: cell-based; conditions: Homo sapiens, MDA-MB-231, 72 h
# Description: as §1, §2
# [12] = system: BxPC3 (pancreatic adenocarcinoma); assay: MTT cytotoxicity, BxPC3; type: cell-based; conditions: Homo sapiens, BXPC-3, 72 h
# Description: as §1, §2
# [13] = MTT cytotoxicity, MEFs Dko; type: cell-based; conditions: mouse, MEFs Dko (bax−/−bak−/−)
# Description: as §1, §2
# MTT cytotoxicity, MEF WT = type: cell-based; conditions: mouse
# Description: as §1, §2
# [14] = Table 1, read-out: Aurora A, IC50
# [15] = Table 2, Mean ± SEM, four repeats, read-out: Aurora A kinase inhibition IC50
# Chain of Aurora B (Q96GD4 whole entry): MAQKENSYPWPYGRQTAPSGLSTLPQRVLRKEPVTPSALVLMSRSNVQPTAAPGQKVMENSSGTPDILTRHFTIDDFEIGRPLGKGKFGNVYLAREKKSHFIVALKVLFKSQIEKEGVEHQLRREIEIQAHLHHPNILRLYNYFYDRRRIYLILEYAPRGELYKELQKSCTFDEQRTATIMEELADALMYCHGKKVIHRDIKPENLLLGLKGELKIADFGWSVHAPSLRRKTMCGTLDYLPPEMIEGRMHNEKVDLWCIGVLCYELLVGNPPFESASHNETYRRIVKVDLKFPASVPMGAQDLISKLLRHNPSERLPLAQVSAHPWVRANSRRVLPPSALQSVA
smiles,measurement,setting,value
"CCCc1cnc(Nc2cccc(C3CCN(C(=O)C(C)(C)N)CC3)n2)s1 [Compound 1, 2-Amino-2-methyl-1-(4-(6-(5-propylthiazole-2-ylamino)pyridin-2-yl)piperidin-1-yl)propan-1-one hydrochloride]",IC50,Aurora A; [14],2.06 ± 0.15 µM
same,IC50,Aurora B,1.45 ± 0.17 µM
same,IC50,Haspin,1.49 ± 0.15 µM
"CCCc1cnc(Nc2cccc(C3CCN(C(=O)CN(C)C)CC3)n2)s1 [Compound 3, 2-(Dimethylamino)-1-(4-(6-(5-propylthiazol-2-ylamino)pyridin2-yl)piperidin-1-yl)ethanone]",IC50,Aurora A; [14],1.95 ± 0.22 µM
same,IC50,Aurora B,1.76 ± 0.16 µM
same,IC50,Haspin,7.06 ± 0.68 µM
"CCCc1cnc(Nc2cccc(C3CCN(C(=O)CN)CC3)n2)s1 [Compound 4, 2-Amino-1-(4-(6-(5-propylthiazol-2-ylamino)pyridin-2-yl)piperidin-1-yl)ethanone]",IC50,Aurora A; [14],2.08 ± 0.25 µM
same,IC50,Aurora B,1.72 ± 0.19 µM
same,IC50,Haspin,0.08 ± 0.008 µM
"CCCc1cnc(Nc2cccc(C3CCN(C(=O)CNC)CC3)n2)s1 [Compound 5, 2-(Methylamino)-1-(4-(6-(5-propylthiazol-2-ylamino)pyridin-2-yl)piperidin-1-yl)ethanone]",IC50,Aurora A; [14],1.44 ± 0.13 µM
same,IC50,Aurora B,0.91 ± 0.08 µM
same,IC50,Haspin,0.43 ± 0.034 µM
"CCCc1cnc(Nc2cccc(C3CCN(C(=O)[C@@H](C)N)CC3)n2)s1 [Compound 6, (R)-2-Amino-1-(4-(6-(5-propylthiazol-2-ylamino)-pyridin-2-yl)piperidin-1-yl)propan-1-one]",IC50,Aurora A; [14],1.67 ± 0.17 µM
same,IC50,Aurora B,1.75 ± 0.18 µM
same,IC50,Haspin,1.12 ± 0.11 µM
"CCCc1cnc(Nc2cc(C(C)C)nc(C3CCN(C(=O)C(C)(C)N)CC3)n2)s1 [Compound 7, 2-Amino-1-(4-(4-isopropyl-6-(5-propylthiazol-2-ylamino)pyrimidin-2-yl)piperidin-1-yl)-2-methylpropan-1-one]",IC50,Aurora A; [14],2.79 ± 0.3 µM
same,IC50,Aurora B,2.25 ± 0.23 µM
same,IC50,Haspin,3.67 ± 0.37 µM
"CCCc1cnc(Nc2cc(CC)nc(C3CCN(C(=O)C(C)(C)N)CC3)n2)s1 [Compound 8, 2-Amino-1-(4-(4-ethyl-6-(5-propylthiazol-2-ylamino)pyrimidin-2-yl)piperidin-1-yl)-2-methylpropan-1-one]",IC50,Aurora A; [14],3.58 ± 0.43 µM
same,IC50,Aurora B,2.05 ± 0.24 µM
same,IC50,Haspin,2.9 ± 0.43 µM
"CC(C)(N)C(=O)N1CCC(c2cccc(Nc3ncc(-c4ccccc4)s3)n2)CC1 [Compound 9, 2-Amino-2-methyl-1-(4-(6-(5-phenylthiazol-2-ylamino)pyridine-2-yl)propan-1-one hydrochloride]",IC50,Aurora A; [14],3.17 ± 0.33 µM
same,IC50,Aurora B,8.02 ± 0.8 µM
same,IC50,Haspin,0.27 ± 0.019 µM
"O=C(C1CNCCO1)N1CCC(c2cccc(Nc3ncc(-c4ccccc4)s3)n2)CC1 (stereo not drawn) [Compound 10, Morpholin-2-yl(4-(6-(5-phenylthiazol-2-ylamino)pyridin-2-yl)piperidin-1-yl)methanone]",IC50,Aurora A; [14],8.38 ± 0.84 µM
same,IC50,Aurora B,0.84 ± 0.09 µM
same,IC50,Haspin,7.8 ± 0.81 µM
"Cc1cc(Nc2ncc(C)s2)nc(CC2CCN(C(=O)c3cccc(Cl)c3F)CC2)n1 [Compound 11, (3-Chloro-2-fluoro-phenyl)-{4-[4-methyl-6-(5-methyl-thiazol-2-ylamino)-pyrimidin-2-ylmethyl]-piperidin-1-yl}-methanone]",IC50,Aurora A; [15],0.012 ± 0.0011 µM
same,IC50,[1],5.4 ± 0.3 µM
same,IC50,[2],3.9 ± 0.15 µM
same,IC50,[3],1.7 ± 0.2 µM
same,IC50,[4],3.2 ± 0.2 µM
same,IC50,[5],10 ± 1.2 µM
same,IC50,[6],0.5 ± 0.04 µM
same,IC50,[7],5.6 ± 0.5 µM
same,IC50,[8],3 ± 0.4 µM
same,IC50 at 72 h,"MTT cytotoxicity, HFB",3.6 ± 0.4 µM
same,IC50,[9],4.6 ± 0.5 µM
same,IC50,[10],0.8 ± 0.09 µM
same,IC50,[11],7.3 ± 0.8 µM
same,IC50,[12],2 ± 0.021 µM
same,IC50 at 48 h,[13],3.1 ± 0.32 µM
same,IC50 at 48 h,"MTT cytotoxicity, MEF WT",1 ± 0.2 µM
same,melting point,,211 to 213 °C
"Cc1cc(Nc2nccs2)nc(CC2CCN(C(=O)c3cccc(Cl)c3F)CC2)n1 [Compound 12, (3-Chloro-2-fluoro-phenyl)-{4-[4-methyl-6-(thiazol-2-ylamino)-pyrimidin-2-ylmethyl]-piperidin-1-yl}-methanone]",IC50,Aurora A; [15],0.0351 ± 0.00036 µM
same,IC50,[1],39.8 ± 3.4 µM
same,IC50,[2],6.8 ± 0.5 µM
same,IC50,[3],5 ± 0.4 µM
same,IC50,[4],6 ± 0.7 µM
same,IC50,[5],16.3 ± 1.7 µM
same,IC50,[6],1.5 ± 0.2 µM
same,IC50,[7],10 ± 1.2 µM
same,IC50,[8],6.5 ± 0.7 µM
same,IC50 at 72 h,"MTT cytotoxicity, HFB",3.8 ± 0.4 µM
same,IC50,[9],10.2 ± 1.2 µM
same,IC50,[10],2 ± 0.15 µM
same,IC50,[11],28.2 ± 0.3 µM
same,IC50,[12],6 ± 0.59 µM
same,IC50 at 48 h,[13],11.8 ± 1.2 µM
same,IC50 at 48 h,"MTT cytotoxicity, MEF WT",5.8 ± 0.5 µM
same,melting point,,207 to 209 °C
"Cc1cc(Nc2cccc(CC3CCN(C(=O)c4cccc(Cl)c4F)CC3)n2)[nH]n1 [Compound 15, (3-Chloro-2-fluoro-phenyl)-{4-[6-(5-methyl-2H-pyrazol-3-ylamino)-pyridin-2-ylmethyl]-piperidin-1-yl}-Methanone]",IC50,Aurora A; [15],0.0175 ± 0.0021 µM
same,IC50,[1],38.8 ± 3.2 µM
same,IC50,[2],> 50 µM
same,IC50,[3],3.7 ± 0.3 µM
same,IC50,[4],9.7 ± 1 µM
same,IC50,[5],5.7 ± 0.6 µM
same,IC50,[6],0.1 ± 0.02 µM
same,IC50,[7],5.7 ± 0.6 µM
same,IC50,[8],2.8 ± 0.3 µM
same,IC50 at 72 h,"MTT cytotoxicity, HFB",3 ± 0.2 µM
same,IC50,[9],6.8 ± 0.7 µM
same,IC50,[10],1 ± 0.12 µM
same,IC50,[11],> 50 µM
same,IC50,[12],7.2 ± 0.6 µM
same,IC50 at 48 h,[13],3 ± 0.2 µM
same,IC50 at 48 h,"MTT cytotoxicity, MEF WT",0.9 ± 0.08 µM
same,melting point,,120 to 122 °C

# — paper PMC4932537, “Search for Potent and Selective Aurora A Inhibitors Based on General Ser/Thr Kinase Pharmacophore Model” (Pharmaceuticals, 2016)
